In patent US11759480B2, “Compositions and methods for CAR T cell therapy” (ENDOCYTE, INC., priority 2017, dated 2023):

Test system: MDA-MB-231 tumor
Assay: Enumeration and characterization of FITC CAR T cells in blood after rescue (Example 33)
Format: in vivo, NSG mice
Protocol: Plasma was removed from predetermined volumes of whole EDTA treated blood with a 10-minute 4° C. spin at 3000 g and the resulting cell pellets were incubated with a 10-fold volume of room temperature 1×RBC lysis solution [prepared from 10× stock; Biolegend, catalog #420301] for 5 minutes, centrifuged at 400 g for 5 min, and the cell pellet was washed in a 10-fold volume of ice cold phosphate buffered saline pH=7.4 and filtered with a 40 μm nylon filter and then pelleted again. The leukocyte pellets were then resuspended in flow cytometry staining solution [1% bovine serum albumin, 50 mg/mL human IgG (Equitech Bio, cat #SLH56-0001), 0.9% sodium azide in a phosphate buffered saline, pH=7.4] supplemented with both anti-mouse FcγIII/II receptor (CD16/CD32) block [clone 2.4G2; BD Bioscience, catalog #553142 at 1:100 (v/v) dilution] and anti-human Fc Block [BD Biosciences, catalog #564220 at 1:50 (v/v) dilution]. Leukocyte surface marker staining was performed with the addition of the following fluorochrome conjugated monoclonal antibodies added to each sample for 20 minutes on ice in the dark: anti-human CD45-APCeF780 [clone HI30, eBioscience #47-0459-42 at 1:20 (v/v) dilution], anti-human CD137-BV650 [clone 4B4-1, BD Bioscience #564092 at 1:20 (v/v) dilution], anti-human CD8α-PECy7 [clone RPA-T8, BD Bioscience, catalog #557746 at 1:20 (v/v) dilution], anti-human CD4-Percpe710 [clone SK3, eBioscience catalog #46-0047-42 at 1:20 (v/v) dilution]. After leukocyte staining, cells were washed with PBS and resuspended in cold PBS containing 53,000 CountBright™ beads [Invitrogen catalog #C36950] and transferred to flow cytometry collection tubes. Flow cytometry data was collected on the Gallios flow cytometer (Beckman Coulter, Brea, Calif.), where a minimum of 15,000 CountBright™ bead events were collected in an attempt to collect enough leukocyte events for an accurate count of infused CART cells in each mouse blood sample. Determination of the concentration of CAR T cells in each blood sample was calculated according to Invitrogen's instructions. Briefly, CAR T cells were identified as human CD45+ GFP+ events and were easily distinguished and counted using the Kaluza™ flow cytometry software. CountBright™ beads were uniformly labeled with a fluorochrome not utilized in the antibody panel used to identify the CAR T cells and were easily distinguished from the leukocytes and bead events were counted. Because 53,000 CountBright™ beads were added to each sample tube, we calculated the ratio of 53,000 total beads to bead events collected per sample and set the bead ratio equivalent to the unknown number of CAR T cells in each sample divided by the known number of CAR T cell events collected. Solving for the unknown gave us the number of CAR T cells isolated from each blood sample of known volumes. The number of CAR T cells in the circulation of each infused mouse was then represented on the graphs as the total number of CART cells per 50 μL of whole blood analyzed. Statistical significance was determined by utilizing an unpaired, two-tailed, students t-test with significance set at p<0.05 for comparisons between each of the three groups of mice.
The experimental timeline is represented in FIG. 53A. On day 0, GFP+FITC-CAR T cells [clone 4M5.3] were removed from cryopreservation, thawed and then infused intravenously into MDA-MB-231 tumor bearing NSG mice at 10 million per mouse [tumors ˜250 mm^3]. […]

Row | Compound | CAR T cells in circulation (one dose EC17 500 nmol/kg) | CAR T cells in circulation (60 μmol/kg, 27 hours after rescue) | earliest increase of circulating CAR T cells (0.06-6 μmol/kg) | CAR T cell extravasation into the blood (24 hours post rescue, 0.06-6 μmol/kg) | 4-1BB (CD137) on circulating CAR T cells (CAR T + EC17 + sodium fluorescein 60 μmol/kg)
1 | Nc1nc2ncc(CNc3ccc(C(=O)NC(CCC(=O)NCCNC(=S)Nc4ccc(-c5c6ccc(=O)cc-6oc6cc(O)ccc56)c(C(=O)O)c4)C(=O)O)cc3)nc2c(=O)[nH]1 (centres unmarked) [EC17, FITC-Folate] | very few CAR T cells are detected in the circulation | – | – | – | –
2 | O=C([O-])c1ccccc1-c1c2ccc(=O)cc-2oc2cc([O-])ccc12.[Na+].[Na+] [sodium fluorescein] | – | CAR T cells reappear in the circulation | 3 h | increased in a sodium fluorescein dose-dependent manner | express significant amounts of 4-1BB
